In US11135209B2, “Compositions and methods for inhibiting protein kinases” (UNIVERSITY OF HOUSTON SYSTEM, priority 2017, dated 2021):

Legend:
human ALK2 = biological target: T1, human ALK2 (Homo sapiens, UniProt Q04771); assay: Activin-Like Kinase 2 (ALK2) enzyme assay; format: biochemical
T1 sequence (Q04771 21-509): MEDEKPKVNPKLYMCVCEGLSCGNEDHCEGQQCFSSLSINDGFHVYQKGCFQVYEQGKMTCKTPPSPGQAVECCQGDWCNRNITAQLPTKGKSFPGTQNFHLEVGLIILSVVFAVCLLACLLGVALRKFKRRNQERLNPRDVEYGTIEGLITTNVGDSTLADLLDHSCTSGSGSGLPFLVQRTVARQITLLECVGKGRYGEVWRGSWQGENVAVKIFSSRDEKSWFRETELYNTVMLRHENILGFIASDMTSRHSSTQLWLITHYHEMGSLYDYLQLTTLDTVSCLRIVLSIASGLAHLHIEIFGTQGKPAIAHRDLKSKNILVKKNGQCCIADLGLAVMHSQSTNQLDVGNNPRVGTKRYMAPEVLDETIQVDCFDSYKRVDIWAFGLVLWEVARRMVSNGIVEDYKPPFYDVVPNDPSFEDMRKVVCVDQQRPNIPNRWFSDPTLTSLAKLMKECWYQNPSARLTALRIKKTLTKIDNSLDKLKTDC
Description: Activin-Like Kinase 2 (ALK2) Enzyme Assay
Enzyme inhibitory activity was evaluated in a standard kinase enzyme assay by incubating human ALK2 with the protein substrate casein (1 mg/mL) and γ-^33ATP (10 μM) in the presence of various concentrations of test compounds (10 nM-100 μM). After 30 min the amount of ^33P-casein was determined.

[1] = biological target: Recombinant RIPK2 protein (Homo sapiens, UniProt O43353); assay: Receptor Interacting Protein Kinase 2 (RIPK2) enzyme assay (ADP-Glo); format: biochemical; settings: for inhibition at 0.5 µM: Conc. 500 nM
Sequence of Recombinant RIPK2 protein (O43353 whole entry, species assumed): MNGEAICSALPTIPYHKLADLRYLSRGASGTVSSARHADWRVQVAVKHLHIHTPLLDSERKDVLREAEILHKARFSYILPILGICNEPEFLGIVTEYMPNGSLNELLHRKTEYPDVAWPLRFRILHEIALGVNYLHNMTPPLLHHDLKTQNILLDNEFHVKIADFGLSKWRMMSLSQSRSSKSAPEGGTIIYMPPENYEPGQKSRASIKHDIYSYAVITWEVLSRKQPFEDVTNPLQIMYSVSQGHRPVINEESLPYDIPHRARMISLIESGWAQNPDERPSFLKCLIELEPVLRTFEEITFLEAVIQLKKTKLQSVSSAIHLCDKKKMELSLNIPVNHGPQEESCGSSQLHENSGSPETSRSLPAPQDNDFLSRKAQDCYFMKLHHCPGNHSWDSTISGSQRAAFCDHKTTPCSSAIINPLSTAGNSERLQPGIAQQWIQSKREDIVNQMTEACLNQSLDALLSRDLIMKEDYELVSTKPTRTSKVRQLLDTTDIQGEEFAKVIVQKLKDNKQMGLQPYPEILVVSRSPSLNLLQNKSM
Description: Receptor Interacting Protein Kinase 2 (RIPK2) Enzyme Assay
Recombinant RIPK2 protein (20 ng per reaction) is diluted in the reaction buffer consisting of 40 mM Tris (pH 7.5); 20 mM MgCl2; 0.1 mg/ml BSA; 50 μM DTT. Diluted protein is added to low volume white 384 well plates (2 μL/well). Inhibitors are diluted in reaction buffer (final 25% DMSO), 1 μL is added to each well and incubated 5 min at room temperature. Reactions are initiated by the addition of 2 μL of 100 μM ATP and 1 mg/ml RS repeat peptide (SignalChem) in the reaction buffer. Plates are sealed with plastic coverslips and incubated at room temperature for 2 h. Reactions are stopped by the addition of 5 μL of ADP-Glo reagent (Promega) and ADP generation reaction is performed for 40 min at room temperature. Luminescence signal is generated by the addition of 10 μL of Kinase detection reagent (Promega) for 30 min at room temperature Luminescence signals are determined using appropriate luminescence plate-reader (typical integration time 0.3-1 sec). To calculate percent inhibition, average background signal is subtracted from test well and maximal signal wells. Inhibition, %=(1−(test signal/maximal signal))*100. The percent inhibition at a specified concentration is determined or IC50 values are calculated based on a dose range of inhibitor concentrations using non-linear regression in GraphPad Prism software.

[2] = test system: NOD2 cellular signaling in HEK-Blue cells expressing human NOD2; assay: NOD2 cell signaling assay (HEK-Blue, NFkB-SEAP reporter, L18-MDP stimulated); format: cell-based; settings: read-out: IC50 (nM) HEKBlue RIPK2
Description: NOD2 Cell Signaling Assay.
HEK-Blue cells expressing human NOD2 and NFkB-SAEP reporter (Invivogen) are seeded into 96 well clear plates at 7.5×10^3 cells per well in 100 μL of DMEM media supplemented with 10% FBS and 1% antibiotic-antimycotic mix. Cells are allowed to attach for 48 h in 5% CO2 tissue culture incubator at 37° C. On the morning of the experiment, media in the wells is replaced with 100 pt of HEK-Blue detection media (Invivogen). Cells are treated with the inhibitors, diluted in DMSO (0.5 μL per well) for 15 min in 5% CO2 tissue culture incubator at 37° C. After that, cells are stimulated by the addition of 1 ng/well L18-MDP (Invivogen). Cells are incubated in 5% CO2 tissue culture incubator at 37° C. for 8 h and absorbance, corresponding to the SEAP in the media, is determined in Wallac3V plate reader (Perkin Elmer). Inhibition, %=(1−((sample signal-unstimulated and DMSO treated cells)/(L18-MDP stimulated and DMSO treated cells−unstimulated and DMSO treated cells)))*100. IC50 values are calculated based on a dose range of inhibitor concentrations using non-linear regression in GraphPad Prism software.

Structure (SMILES)	IC50 (human ALK2) [nM]	IC50 [1] [nM]	IC50 [2] [nM]	inhibition at 0.5 µM [1] [%]
CCCS(=O)(=O)Nc1cc(-c2cc(-c3ccccc3S(C)(=O)=O)cnc2N)ccc1OC [CSLP33, N-(5-(2-Amino-5-(2-(methylsulfonyl)phenyl)pyridin-3-yl)-2-methoxyphenyl)propane-1-sulfonamide]	> 100000	> 1000	> 1000	–
CCCS(=O)(=O)Nc1cc(OC)cc(-c2cc(-c3ccc(N4CCNCC4)cc3)cnc2N)c1 [CSLP6]	> 1	> 10	> 100	–
CCCS(=O)(=O)Nc1cc(OC)cc(-c2cc(-c3ccc(N4CCNCC4)cc3)cnc2C)c1 [CSLP10, N-(3-Methoxy-5-(2-methyl-5-(4-(piperazin-1-yl)phenyl)pyridin-3-yl)phenyl)propane-1-sulfonamide]	> 10	> 100	> 1000	84
CCCS(=O)(=O)Nc1ccc(-c2cc(-c3ccc(N4CCNCC4)cc3)cnc2C)cc1OC [CSLP1, N-(2-methoxy-4-(2-methyl-5-(4-(piperazin-1-yl)phenyl)pyridin-3-yl)phenyl)propane-1-sulfonamide]	> 100000	–	> 1000	< 0
CCS(=O)(=O)Nc1cc(OC)cc(-c2cc(-c3ccc(N4CCNCC4)cc3)cnc2N)c1 [CSLP7]	–	> 10	> 100	–
CCCS(=O)(=O)N1CCc2ccc(-c3cc(-c4ccc(N5CCNCC5)cc4)cnc3N)cc21 [CSLP46, 5-(4-(Piperazin-1-yl)phenyl)-3-(1-(propylsulfonyl)indolin-6-yl)pyridin-2-amine]	> 100000	> 100	> 1000	–
CCCS(=O)(=O)Nc1cc(-c2cc(-c3ccc(N4CCNCC4)cc3)cnc2C)cc(F)c1OC [CSLP53, N-(3-Fluoro-2-methoxy-5-(2-methyl-5-(4-(piperazin-1-yl)phenyl)pyridin-3-yl)phenyl)propane-1-sulfonamide]	> 100000	> 1000	> 1000	–
CCS(=O)(=O)Nc1cc(OC)cc(-c2cc(-c3ccc(N4CCNCC4)cc3)cnc2Cl)c1 [CSLP14]	> 10	> 100	> 1000	86
COc1cc(NS(=O)(=O)C2CC2)cc(-c2cc(-c3ccc(N4CCNCC4)cc3)cnc2C)c1 [CSLP9, N-(3-Methoxy-5-(2-methyl-5-(4-(piperazin-1-yl)phenyl)pyridin-3-yl)phenyl)cyclopropanesulfonamide]	–	–	> 1000	76
CCCS(=O)(=O)Nc1cc(-c2cc(-c3ccc(N4CCNCC4)cc3)cnc2N)cc(F)c1C [CSLP41, N-(5-(2-Amino-5-(4-(piperazin-1-yl)phenyl)pyridin-3-yl)-3-fluoro-2-methylphenyl)propane-1-sulfonamide]	> 100000	> 100	> 100	–
COc1cc(NS(=O)(=O)C2CC2)cc(-c2cc(-c3ccc(N4CCNCC4)cc3)cnc2N)c1 [CSLP11, N-(3-(2-Amino-5-(4-(piperazin-1-yl)phenyl)pyridin-3-yl)-5-methoxyphenyl)cyclopropanesulfonamide]	–	> 10	> 100	–
CCCS(=O)(=O)Nc1cc(-c2cc(-c3ccc(N4CCNCC4)cc3)cnc2N)cc(C)c1C [CSLP45, N-(5-(2-Amino-5-(4-(piperazin-1-yl)phenyl)pyridin-3-yl)-2,3-dimethylphenyl)propane-1-sulfonamide]	> 100	> 100	> 100	–
CC(C)Oc1cc(NS(=O)(=O)C(C)C)cc(-c2cc(-c3ccc(N4CCNCC4)cc3)cnc2N)c1 [CSLP29, N-(3-(2-Amino-5-(4-(piperazin-1-yl)phenyl)pyridin-3-yl)-5-isopropoxyphenyl)propane-2-sulfonamide]	> 100000	> 100	> 100	–
CCCS(=O)(=O)Nc1cc(-c2cc(-c3ccc(S(C)(=O)=O)cc3)cnc2N)ccc1OC [CSLP34]	> 10000	> 100	> 1000	–
COc1cc(-c2cc(-c3ccc(N4CCNCC4)cc3)cnc2N)cc(NS(=O)(=O)c2ccccc2)c1C [CSLP51, N-(5-(2-Amino-5-(4-(piperazin-1-yl)phenyl)pyridin-3-yl)-3-methoxy-2-methylphenyl)benzenesulfonamide]	> 1000	> 1000	> 1000	–
COc1cc(-c2cc(-c3ccc(N4CCNCC4)cc3)cnc2N)cc(NS(=O)(=O)Cc2ccccc2)c1C [CSLP31, N-(5-(2-Amino-5-(4-(piperazin-1-yl)phenyl)pyridin-3-yl)-3-methoxy-2-methylphenyl)-1-phenylmethanesulfonamide]	> 10	> 1000	> 100	–
COc1cc(NS(=O)(=O)c2ccccc2)cc(-c2cc(-c3ccc(N4CCNCC4)cc3)cnc2N)c1 [CSLP20, N-(3-(2-Amino-5-(4-(piperazin-1-yl)phenyl)pyridin-3-yl)-5-methoxyphenyl)benzenesulfonamide]	> 1	> 1	> 10	–
CCOc1cc(-c2cc(-c3ccc(N4CCNCC4)cc3)cnc2N)cc(NS(=O)(=O)Cc2ccccc2)c1C [CSLP54, N-(5-(2-Amino-5-(4-(piperazin-1-yl)phenyl)pyridin-3-yl)-3-ethoxy-2-methylphenyl)-1-phenylmethanesulfonamide]	> 1000	> 1000	> 1000	–
CCCS(=O)(=O)Nc1cc(-c2cc(-c3ccc(N4CCNCC4)cc3)cnc2N)cc(Cl)c1OC [CSLP35]	> 100	> 10	> 10	–
COc1cc(NS(=O)(=O)Cc2ccccc2)cc(-c2cc(-c3ccc(N4CCNCC4)cc3)cnc2N)c1 [CSLP24, N-(3-(2-Amino-5-(4-(piperazin-1-yl)phenyl)pyridin-3-yl)-5-methoxyphenyl)-1-phenylmethanesulfonamide]	> 1	> 100	> 100	–
CCCS(=O)(=O)Nc1cc(-c2cc(-c3ccc(N4CCNCC4)cc3)cnc2N)cc(C)c1OC [CSLP42, N-(5-(2-Amino-5-(4-(piperazin-1-yl)phenyl)pyridin-3-yl)-2-methoxy-3-methylphenyl)propane-1-sulfonamide]	> 100	> 10	> 100	–
CCCS(=O)(=O)Nc1cc(OC)cc(-c2cc(-c3cccc(S(C)(=O)=O)c3)cnc2N)c1 [CSLP44, N-(3-(2-Amino-5-(3-(methylsulfonyl)phenyl)pyridin-3-yl)-5-methoxyphenyl)propane-1-sulfonamide]	> 100	> 10	> 1000	–
CCCS(=O)(=O)Nc1cc(-c2cc(-c3ccc(N4CCNCC4)cc3)cnc2N)cc(OCC)c1OC [CSLP56]	> 100000	> 1000	> 1000	–
COc1cc(-c2cc(-c3ccc(N4CCNCC4)cc3)cnc2N)cc(NS(C)(=O)=O)c1C [CSLP21, N-(5-(2-Amino-5-(4-(piperazin-1-yl)phenyl)pyridin-3-yl)-3-methoxy-2-methylphenyl)methanesulfonamide]	> 100	> 1000	> 1000	–
CCCS(=O)(=O)Nc1cc(-c2cc(-c3ccc(N4CCNCC4)cc3)cnc2N)ccc1O [CSLP48, N-(5-(2-Amino-5-(4-(piperazin-1-yl)phenyl)pyridin-3-yl)-2-hydroxyphenyl)propane-1-sulfonamide]	> 100	> 10	> 1000	–
